What was measured:
[1] = test system: ARF-1:AP-1:Nef:MHC-I complex; test: Differential scanning fluorimetry (DSF) thermal stability assay; type: binding; conditions: 1-hour incubation, compared to solvent control
From the text: The His6- and GST-tagged AP-1 core, mouse AP1M1 (157-423) (referred as μ1-CTD), human Arf1 (17-181)-Q71L, human MHC-I (338-365)-NL4-3 Nef, HIV-1 NL4-3 Nef constructs and protein purification were previously described. For GST pull down assay, codon-optimized human MHC-I (338-365) was subcloned into pGST parallel2 vector using BamHI/Xhol sites, fused an N-terminal GST tag and a TEV cleavage site. PCR encoding HIV-1 Nef or SlVsmm Nef fused with GFP was subcloned into LIC 2BT vector (Macrolab), expressed as a TEV-cleavable N-terminal His6 tag and C-terminal uncleavable GFP tag.
Recombinant AP-1 core was mixed with Arf1-GTP and MHC-I-Nef at the molar ratio of 1:4:6, then incubated at 4° C. overnight. […]
DSF assays were performed using a Stratagene Mx3000P RT-PCR (Stratagene, La Jolla, CA) to monitor protein unfolding by the florescence increasing of SYPRO Orang (Invitrogen, Carlsbad, Calif.). […] The Fluorescent intensity was measured using the SYBR green filter over the temperature range of 25 to 90° C. in 1 degree/min increments. After subtracting fluorescence from DMSO control reaction without protein, the average fluorescent intensities were plotted as a function of temperature. […] The fluorescence intensity (before post-peak region) was fitted to Boltzmann equation to obtain melting temperature (Tm).

[2] = CMA concentration in mouse plasma and lymph nodes by mass spectrometry; type: in vivo, mice; conditions: 2 hours after the final dose
Procedure: (§1) FIG. 8A is a schematic representation of experiments for FIG. 8B-D. Five mice per group received injections of CMA every 2 days for 10 doses. Blood plasma and lymph nodes were harvested from mice sacrificed 2 hours after the final injection.
FIG. 8D is a summary graph of mass spectrometry data quantifying the concentration of CMA in blood plasma from mice in each Group A and Group B.
FIG. 8E is a summary graph of mass spectrometry data quantifying the concentration of CMA in lymph nodes from mice in each Group A and Group B. Points represent the 5 individual mice within each group. LOD=limit of detection. Open circles represent samples with CMA below the limit of detection.
(§2) Mouse in vivo Assays. To further examine the tolerability of CMA, preliminary studies were performed in two groups of mice injected with different doses of CMA every other day for 18 days (FIG. 8A). […] In a separate experiment, plasma harvested from treated mice inhibited Nef in our in vitro assay (FIG. 8F). Taken together, these promising preliminary studies provide evidence that CMA is both efficacious and tolerable in vivo.

CD4+ T cells = test: Cell cycle analysis of CD4+ T cells; type: cell-based, human; conditions: 0.5 nM
[3] = test system: lysosomal pH in human monocyte-derive macrophages (MDMs); test: Lysosensor Yellow/Blue dextran analysis of lysosomal pH in MDMs; type: cell-based; conditions: 1 hour, read-out: EC50 for lysosome neutralization
Procedure: To measure the lysosomal pH in human monocyte-derive macrophages (MDMs), MDMs adhered to 24-well plates were exposed to 500 μg/mL Lysosensor Yellow/Blue dextran, 10,000 MW (ThermoFisher, L22460) in R10 for 24 hours. MDMs were then exposed to plecomacrolides for 1 hour and harvested with 0.05% Trypsin-EDTA (Gibco 25300054). Cells were washed twice in FACS buffer, and analyzed on a MoFlo Astrios flow cytometer, with blue signal excited from a 354 nm laser and yellow signal excited from a 405 nm laser. A standard curve was generated by resuspending MDMs in equilibration buffers of known pH as previously described. The ratio of blue:yellow fluorescence intensity was calculated for each cell, the median blue:yellow ratio for the cell population for each condition was obtained, and the lysosomal pH in MDMs was calculated for each condition using the standard curve.
Lysosensor Yellow/Blue Dextran Analysis of Lysosomal pH. To measure the lysosomal pH in human MDMs, MDMs adhered to 24-well plates were exposed to 500 μg/mL Lysosensor Yellow/Blue dextran, 10,000 molecular weight (MVV) in R10 for 24 h. MDMs were then exposed to plecomacrolides for 1 h and harvested with 0.05% Trypsin-(ethylenedinitrilo)tetraacetic acid (EDTA). Cells were washed twice in FACS buffer, and analyzed on a flow cytometer, with blue signal excited from a 354-nm laser and yellow signal excited from a 405-nm laser. A standard curve was generated by resuspending MDMs in equilibration buffers of known pH. The ratio of blue:yellow fluorescence intensity was calculated for each cell, the median blue:yellow ratio for the cell population for each condition was obtained, and the lysosomal pH in MDMs was calculated for each condition using the standard curve.

[4] = Mouse in vivo tolerability; set-up: species or system mice
Procedure: as §1, §2

Structure (SMILES): C/C=C/[C@H]1O[C@@](O)([C@@H](C)[C@H](O)[C@H](C)[C@H]2OC(=O)/C(OC)=C/C(C)=C/[C@@H](C)[C@@H](O)[C@@H](CC)[C@@H](O)[C@H](C)C/C(C)=C/C=C/[C@@H]2OC)C[C@@H](O[C@H]2C[C@@H](O)[C@H](OC(N)=O)[C@@H](C)O2)[C@@H]1C [CMA, concanamycin A]
- change in Tm of complex components [1]: No significant changes in Tm
- drug concentrations in plasma and lymph nodes [2]: higher than those required to counteract Nef activity in vitro
- decrease in cells in G2/M (CD4+ T cells): not statistically significant
- increase in the proportion of cells in S phase compared to solvent control (CD4+ T cells): 1.15 fold
- EC50 [3]: 12.7 nM
- toxicity based on behavior, fur and weight loss ([4]; two doses, injected every other day for 18 days): Neither dose showed toxicity
- body mass ([4]; weighed prior to each dose): no loss in body mass and no dose effect

— patent US12594258B2, “Inhibitors of MHC-I Nef downmodulation for treating HIV” (priority 2019, dated 2026)
